We go through five compounds from US20240132492A1, “PYRIDOPYRIMIDINE-BASED COMPOUND AND APPLICATION THEREOF” (JINAN UNIVERSITY, priority 2021, published 2024).

Format in all cases: cell-based
The target in one experiment is T1, AKT1 (Homo sapiens, UniProt P31749).
T1 construct: AKT1, AKT2, and AKT3 proteins in H1975-OR cells; endogenous in cells; host or cells: H1975-OR (osimertinib-resistant H1975)
In words: Western Blot, degradation of AKT1 protein in H1975-OR cells. To be noted: 24 hours, maximum degradation rate; for Dmax at 1 µM: 1000 nM. The procedure, abridged:
(§1)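 H1975-OR cells are Osimertinib-resistant H1975, adapted stepwise from 50 nM to 3 μM Osimertinib. Cells were treated with compound for 24 h, lysed, and immunoblotted with ECL detection. Band grayscale density was quantified.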
A general note: In western blotting, separated proteins are transferred to a membrane and probed.

In the next experiment the test system is HCC827. In words: CCK-8 tumor cell proliferation, HCC827. To be noted: HCC827 cells, 72 hours. Here is the method: (§2) Tumor cells (see Table 2 to Table 5) were inoculated in 96-well plates in complete culture medium (2000-3000 cells/well). After overnight incubation, the compounds with different concentrations (0.000508 μM-10 μM) were used to treat the cells separately for 72 hours. CCK-8 (Cell Counting Kit 8, Dojindo Laboratories, Kumamoto, Japan) experiment was used to evaluate cell proliferation. GraphPad Prism 5.0 software (La Jolla, CA) was used to calculate the half-maximal inhibitory concentration (IC50) values by fitting the concentration response curve. Each IC50 value was represented as an average value±SD.

In a further experiment the target is AKT3 (Homo sapiens, UniProt Q9Y243). In words: Western Blot, degradation of AKT3 protein in H1975-OR cells. To be noted: 24 hours, maximum degradation rate; for Dmax at 1 µM: 1000 nM. Further details: endogenous in cells; host or cells: H1975-OR (osimertinib-resistant H1975). The procedure, abridged: as §1
AKT3, sequence (Q9Y243 whole entry): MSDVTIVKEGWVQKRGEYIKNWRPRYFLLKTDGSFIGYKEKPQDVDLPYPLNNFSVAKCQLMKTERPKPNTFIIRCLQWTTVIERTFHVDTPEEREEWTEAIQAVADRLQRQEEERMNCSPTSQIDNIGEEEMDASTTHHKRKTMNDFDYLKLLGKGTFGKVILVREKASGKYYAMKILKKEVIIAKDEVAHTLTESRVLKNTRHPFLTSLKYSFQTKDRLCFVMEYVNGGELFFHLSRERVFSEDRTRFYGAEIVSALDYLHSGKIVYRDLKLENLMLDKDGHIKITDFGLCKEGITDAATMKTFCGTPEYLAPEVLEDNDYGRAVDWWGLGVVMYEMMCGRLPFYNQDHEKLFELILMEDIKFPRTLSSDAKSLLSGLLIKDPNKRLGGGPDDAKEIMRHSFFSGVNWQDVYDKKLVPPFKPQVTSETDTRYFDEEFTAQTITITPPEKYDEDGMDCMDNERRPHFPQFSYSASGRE
The next experiment relates to PC-9. In words: CCK-8 tumor cell proliferation, PC-9. As to conditions: PC-9 cells, 72 hours. Here is the method: as §2
A further experiment has as its system A431. The experiment can be described thus: CCK-8 tumor cell proliferation, A431. As to conditions: 72 hours. Here is the method:
as §2

Another experiment addresses T2, AKT2 (Homo sapiens, UniProt P31751).
T2 construct: AKT1, AKT2, and AKT3 proteins in H1975-OR cells; endogenous in cells; host or cells: H1975-OR (osimertinib-resistant H1975)
In words: Western Blot, degradation of AKT2 protein in H1975-OR cells. As to conditions: 24 hours, maximum degradation rate; for Dmax at 1 µM: 1000 nM. The procedure, abridged: as §1

Another experiment has as its system H1975OR. The experiment can be described thus: CCK-8 tumor cell proliferation, H1975OR. To be noted: H1975OR cells (Osimertinib resistant), 72 hours. The procedure, abridged: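 Osimertinib-resistant H1975 cells, selected by raising Osimertinib stepwise from 50 nM to 3 μM, were treated for 72 h with compound at 0.000508–10 μM. Proliferation was read by CCK-8, and IC50 came from fitting the concentration–response curve, given as mean ± SD.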

The test system of a further experiment is H1975. In words: CCK-8 tumor cell proliferation, H1975. As to conditions: 72 hours. The procedure, abridged: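 2000-3000 cells/well, o/n attachment, cpd 0.000508-10 μM × 72 h, CCK-8 readout, curve-fit IC50 (mean±SD).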
The test system of a further experiment is H1299. The experiment can be described thus: CCK-8 tumor cell proliferation, H1299. As to conditions: 72 hours. The protocol:
as §2

Where [1] appears, read: Homo sapiens, A-431, A431 cells.
[2] abbreviates: Homo sapiens, NCI-H1975, H1975 cells.
[3] abbreviates: Homo sapiens, NCI-H1299, H1299 cells.

T1 sequence (P31749 whole entry): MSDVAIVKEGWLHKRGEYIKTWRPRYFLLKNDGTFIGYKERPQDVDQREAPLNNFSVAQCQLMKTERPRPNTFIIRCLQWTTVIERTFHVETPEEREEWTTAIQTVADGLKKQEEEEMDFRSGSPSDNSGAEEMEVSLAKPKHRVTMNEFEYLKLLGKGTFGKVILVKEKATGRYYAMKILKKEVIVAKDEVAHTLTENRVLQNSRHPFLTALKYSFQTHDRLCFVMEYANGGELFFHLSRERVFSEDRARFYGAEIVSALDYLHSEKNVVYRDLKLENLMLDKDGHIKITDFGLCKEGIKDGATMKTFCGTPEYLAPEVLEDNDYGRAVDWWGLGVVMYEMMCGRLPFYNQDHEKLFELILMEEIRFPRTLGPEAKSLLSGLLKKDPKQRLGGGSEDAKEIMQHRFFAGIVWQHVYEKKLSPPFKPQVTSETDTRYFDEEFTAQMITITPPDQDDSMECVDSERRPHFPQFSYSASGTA
T2 sequence (P31751 whole entry): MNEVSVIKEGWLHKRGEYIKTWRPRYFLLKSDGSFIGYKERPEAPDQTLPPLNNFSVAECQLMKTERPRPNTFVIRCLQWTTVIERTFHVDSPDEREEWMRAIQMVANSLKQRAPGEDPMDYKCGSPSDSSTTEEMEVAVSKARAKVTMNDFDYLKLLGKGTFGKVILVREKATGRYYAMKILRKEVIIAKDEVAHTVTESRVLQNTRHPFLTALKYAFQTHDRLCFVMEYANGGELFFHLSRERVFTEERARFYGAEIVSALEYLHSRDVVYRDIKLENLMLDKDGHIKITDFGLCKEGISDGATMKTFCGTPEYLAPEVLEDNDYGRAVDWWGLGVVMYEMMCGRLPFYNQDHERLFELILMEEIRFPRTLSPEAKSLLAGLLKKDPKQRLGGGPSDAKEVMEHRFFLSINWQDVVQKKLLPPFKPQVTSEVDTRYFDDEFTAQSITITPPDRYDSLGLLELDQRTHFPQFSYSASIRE

One may read the Dmax as the largest share of the target that was removed. Low readings indicate shallow degradation, high ones deep degradation. A word on the IC50: it is the point on the concentration scale where inhibition reaches its midpoint. For `CCC(=O)Nc1cccc(-n2c(=O)cc(C)c3cnc(Nc4ccc(N5CCN(CCCCCCCCCCCCNC(=O)CC67CC8CC(CC(C8)C6)C7)CC5)cc4OC)nc32)c1` [ZX-HYT-08, N-(3-(2-((4-(4-(12-(2-((3R, 5R, 7R)-adamantan-1-yl)acetylamino)dodecyl)piperazin-1-yl)-2-methoxyphenyl)amino)-5-methyl-7-oxypyridino [2,3-d]pyrimidin-8 (7H)-yl)phenyl) propionamide], the Dmax at 1 µM is 0% on AKT1, 66.8% at AKT3 and 0% on AKT2. Besides, the IC50 in the experiment on HCC827 (Homo sapiens) turned out to be 0.157 ± 0.0679 µM; in the experiment on PC-9 (Homo sapiens), 0.109 ± 0.019 µM; in the experiment with A431 (setting [1]) it was 0.00986 ± 0.0022 µM; in the experiment with H1975OR, 0.0107 ± 0.003 µM; in the experiment on H1975 (setting [2]), 8.47 µM; with H1299 (setting [3]) it was 0.212 ± 0.0153 µM.
Take `COc1cc(N2CCN(CCCCCCCCCCCCNC(=O)CC34CC5CC(CC(C5)C3)C4)CC2)ccc1Nc1ncc2c(C)cc(=O)n(-c3cccc(N)c3)c2n1` [ZX-HYT-17, 2-((3R, 5R, 7R)-adamantan-1-yl)-N-(12-(4-(4-(8-(3-aminophenyl)-5-methyl-7-oxy-7,8-dihydropyridino [2,3-d]pyrimidin-2-yl)amino)-3-methoxyphenyl)piperazin-1-yl) dodecyl) acetamide]: the Dmax at 1 µM stood at 46.4% on AKT1, 76.4% on AKT3 and 45.9% at AKT2. Further, the IC50 in the experiment with HCC827 (Homo sapiens) came out at 0.186 ± 0.122 µM; in the experiment on PC-9 (Homo sapiens) it was 0.0234 ± 0.00578 µM; in the experiment with A431 (setting [1]), 0.0225 ± 0.0035 µM; with H1975OR, 0.023 ± 0.007 µM; in the experiment on H1975 (setting [2]), 0.214 ± 0.013 µM; in the experiment with H1299 (setting [3]), 2.1 ± 0.049 µM.
As for `C=CC(=O)Nc1cccc(-n2c(=O)cc(C)c3cnc(Nc4ccc(N5CCN(C(=O)CCCCCCCCCCCNC(=O)CC67CC8CC(CC(C8)C6)C7)CC5)cc4OC)nc32)c1` [ZX-HYT-07, N-(3-(2-((4-(4-(12-(2-((3R, 5R, 7R)-adamantan-1-yl)acetylamino)dodecanoyl)piperazin-1-yl)-2-methoxyphenyl)amino)-5-methyl-7-oxypyridino [2,3-d]pyrimidin-8 (7H)-yl)phenyl) acrylamide], at AKT1, the “Dmax (%) at 1000 nM AKT1” value worked out at 0%. In addition, the IC50 in the experiment with HCC827 was 0.882 ± 0.0945 µM; in the experiment on PC-9 it was 6.79 ± 3.6 µM; in the experiment with A431 (A431 cells), 0.0839 ± 0.0133 µM; in the experiment on H1975OR, 0.417 ± 0.08 µM; in the experiment on H1975 (H1975 cells), 5.07 ± 0.836 µM; in the experiment with H1299 (H1299 cells), 1.46 ± 0.428 µM. Also, the “Dmax (%) at 1000 nM AKT3” value on AKT3 came out at 69.2%. Also, the “Dmax (%) at 1000 nM AKT2” value at AKT2 amounted to 0%.
For the compound `C=CC(=O)Nc1cccc(-n2c(=O)cc(C)c3cnc(Nc4ccc(N5CCN(CCCCCCNC(=O)CC67CC8CC(CC(C8)C6)C7)CC5)cc4OC)nc32)c1` [ZX-HYT-02, N-(3-(2-((4-(4-(6-(2-(((3R, 5R, 7R)-adamantan-1-yl)acetamido)hexyl)piperazin-1-yl)-2-methoxyphenyl)amino)-5-methyl-7-oxypyridino [2,3-d]pyrimidin-8 (7H)-yl)phenyl)acrylamide], the Dmax at 1 µM on AKT1 was determined as 0%; on AKT3, 30.8%; at AKT2, 0%. The IC50 was 0.105 ± 0.00819 µM with HCC827 (Homo sapiens); 0.255 ± 0.0394 µM in the experiment on PC-9 (Homo sapiens); 0.102 ± 0.0095 µM in the experiment on A431 (setting [1]); 0.167 ± 0.025 µM in the experiment on H1975OR; 0.194 ± 0.063 µM in the experiment on H1975 (setting [2]); 8.74 ± 1.12 µM in the experiment with H1299 (setting [3]).
With `C=CC(=O)Nc1cccc(-n2c(=O)cc(C)c3cnc(Nc4ccc(N5CCN(CCCCCCCCNC(=O)CC67CC8CC(CC(C8)C6)C7)CC5)cc4OC)nc32)c1` [ZX-HYT-03, N-(3-(2-((4-(4-(8-(2-(((3R, 5R, 7R)-adamantan-1-yl)acetamido)octyl)piperazin-1-yl)-2-methoxyphenyl)amino)-5-methyl-7-oxypyridino [2,3-d]pyrimidin-8 (7H)-yl)phenyl)acrylamide], the Dmax at 1 µM on AKT1 was determined as 78.9%; at AKT3, 89.1%; at AKT2, 64.8%. For the same compound, the IC50 in the experiment with HCC827 (Homo sapiens) turned out to be 0.0954 ± 0.0331 µM; in the experiment on PC-9 (Homo sapiens), 0.0536 ± 0.00753 µM; in the experiment on A431 (setting [1]) it was 0.0299 ± 0.0028 µM; in the experiment with H1975OR, 0.074 ± 0.004 µM; with H1975 (setting [2]), 0.844 ± 0.822 µM; in the experiment on H1299 (setting [3]) it was 0.876 ± 0.283 µM.
